Our source for the EC50 values is US20090069301A1, “Acridine and Quinoline Derivatives as Sirtuin Modulators” (Sirtris Pharmaceuticals, Inc., priority 2005, published 2009).

Assay [1] addresses T1, human SIRT3 (Homo sapiens, UniProt Q9NTG7).
T1 construct: corresponded to amino acid residues 102-399 of human SIRT3 with an N-terminal His-tag; His-tag (N); made in house; host or cells: E. coli
T1 sequence (Q9NTG7 102-399): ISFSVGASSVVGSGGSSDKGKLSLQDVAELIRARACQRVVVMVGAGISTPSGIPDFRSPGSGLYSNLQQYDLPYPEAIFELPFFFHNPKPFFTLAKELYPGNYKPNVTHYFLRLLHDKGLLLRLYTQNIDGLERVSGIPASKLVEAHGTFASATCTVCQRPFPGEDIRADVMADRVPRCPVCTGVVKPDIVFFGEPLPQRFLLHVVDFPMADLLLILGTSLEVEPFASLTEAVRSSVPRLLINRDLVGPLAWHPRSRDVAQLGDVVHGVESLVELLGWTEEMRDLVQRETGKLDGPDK
Nature of the assay: Fluorescence polarization assay to identify modulators of SIRT3 activity (Histone H4-based peptide deacetylation). It is filed as biochemical. To be noted: activation of SIRT3, Table 6; read-out: ED50 (the source's name). An excerpt:
A fluorescence polarization assay was used to identify modulators of SIRT3 activity. The same assay may be used to identify modulators of any sirtuin protein. The assay utilizes a peptide substrate based on a fragment of Histone H4, a known sirtuin deacetylation target. The substrate contains a peptide having 14 amino acid residues as follows: Biotin-GASSHSK(Ac)VLK(MR121) (SEQ ID NO: 3) wherein K(Ac) is an acetylated lysine residue. The peptide is labeled with the fluorophore MR121 (excitation 635 nm/emission 680 nm) at the C-terminus and biotin at the N-terminus.
The peptide substrate is exposed to a sirtuin protein in the presence of NAD^+ to allow deacetylation of the substrate and render it sensitive to cleavage by trypsin. […] The fluorescence polarization signal observed for the full length peptide substrate bound to streptavidin is higher than the fluorescence polarization signal observed for the released MR121 C-terminal fragment. Therefore, the fluorescence polarization obtained is inversely proportional to the level of deacetylation (e.g., the signal is inversely proportional to the activity of the sirtuin protein). Results are read on a microplate fluorescence polarization reader (Molecular Devices Spectramax MD) with appropriate excitation and emission filters. […]
On the technique in general: Polarisation of emitted light reports the rotation of a fluorescent probe.

In assay [2] the target is T2, SIRT1 (Homo sapiens, UniProt Q96EB6).
T2 sequence (Q96EB6 1-747): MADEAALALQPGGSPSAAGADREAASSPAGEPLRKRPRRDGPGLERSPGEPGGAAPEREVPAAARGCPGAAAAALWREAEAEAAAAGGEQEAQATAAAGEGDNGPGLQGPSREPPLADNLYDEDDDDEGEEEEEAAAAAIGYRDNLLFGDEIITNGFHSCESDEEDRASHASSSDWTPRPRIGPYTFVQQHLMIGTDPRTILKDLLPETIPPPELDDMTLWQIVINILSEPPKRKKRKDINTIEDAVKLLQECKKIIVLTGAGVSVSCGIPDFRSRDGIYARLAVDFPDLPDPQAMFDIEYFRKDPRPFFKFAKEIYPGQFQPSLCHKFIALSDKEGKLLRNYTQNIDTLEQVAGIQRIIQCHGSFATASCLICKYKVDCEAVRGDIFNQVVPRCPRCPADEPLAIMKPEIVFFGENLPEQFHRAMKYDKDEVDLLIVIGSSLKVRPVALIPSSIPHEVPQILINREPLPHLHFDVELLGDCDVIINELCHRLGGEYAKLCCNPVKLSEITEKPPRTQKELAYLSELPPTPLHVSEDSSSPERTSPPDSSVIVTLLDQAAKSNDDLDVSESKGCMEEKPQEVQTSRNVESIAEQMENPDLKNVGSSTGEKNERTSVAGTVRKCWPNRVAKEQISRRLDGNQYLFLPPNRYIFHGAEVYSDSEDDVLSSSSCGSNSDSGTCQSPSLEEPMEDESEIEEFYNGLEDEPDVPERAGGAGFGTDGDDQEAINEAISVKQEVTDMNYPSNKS
Nature of the assay: Fluorescence polarization or mass spectrometry based assay to identify modulators of SIRT1 activity (p53-based peptide deacetylation).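 Note: recombinant His-tagged human SIRT1 deacetylating p53-derived acetylated peptide, detected by fluorescence polarization after trypsin cleavage, signal inversely tracking deacetylase activity, compared against activity without test compound.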 It counts as biochemical. The following applies: activation of SIRT1, Table 4; read-out: ED50 (the source's name).

The structures appear in SMILES notation. Bounds are passed on as bounds.

On to `O=C(Nc1ccccc1N1CCOCC1)c1cc(-c2ccco2)nc2ccccc12` [Compound 8], for which the EC50 in assay [1] and in assay [2] was under 50 µM in each case.
